Experimental data reported in ChEMBL document CHEMBL3046898, “Synthesis and characterization of flurbiprofen hydrazide derivatives as potential anti-HCV, anticancer and antimicrobial agents” (2013).
Calls of active or inactive are those of the source. The rule behind the calls is not given here.

Tests used:
Micrococcus lylae [1] = test: Antibacterial activity against Micrococcus lylae at 6.25 to 200 ug/ml after 24 hrs by microwell dilution method; format: functional, organism-based
Pseudomonas aeruginosa [2] = test: Antibacterial activity against Pseudomonas aeruginosa at 6.25 to 200 ug/ml after 24 hrs by microwell dilution method; format: functional, organism-based
Proteus vulgaris [3] = test: Antibacterial activity against Proteus vulgaris at 6.25 to 200 ug/ml after 24 hrs by microwell dilution method; format: functional, organism-based
Escherichia coli [4] = test: Antibacterial activity against Escherichia coli at 6.25 to 200 ug/ml after 24 hrs by microwell dilution method; format: functional, organism-based
Staphylococcus cohnii [5] = test: Antibacterial activity against Staphylococcus cohnii at 6.25 to 200 ug/ml after 24 hrs by microwell dilution assay; format: functional, organism-based
Staphylococcus aureus [6] = test: Antibacterial activity against Staphylococcus aureus at 6.25 to 200 ug/ml after 24 hrs by microwell dilution assay; format: functional, organism-based
Micrococcus luteus [7] = test: Antibacterial activity against Micrococcus luteus at 6.25 to 200 ug/ml after 24 hrs by microwell dilution method; format: functional, organism-based
Aspergillus = test: Antifungal activity against Aspergillus at 10 mg/ml after 72 hrs by disc diffusion method; format: functional, organism-based
Pichia membranifaciens = test: Antifungal activity against Pichia membranifaciens at 10 mg/ml after 48 hrs by disc diffusion method; format: functional, organism-based
Kluyveromyces marxianus = test: Antifungal activity against Kluyveromyces marxianus at 10 mg/ml after 48 hrs by disc diffusion method; format: functional, organism-based
[8] = system: Schwanniomyces occidentalis; test: Antifungal activity against Schwanniomyces occidentalis at 10 mg/ml after 48 hrs by disc diffusion method; format: functional, organism-based
Nakaseomyces glabratus = test: Antifungal activity against Candida glabrata at 10 mg/ml after 48 hrs by disc diffusion method; format: functional, organism-based
Candida parapsilosis = test: Antifungal activity against Candida parapsilosis at 10 mg/ml after 48 hrs by disc diffusion method; format: functional, organism-based
Candida tropicalis = test: Antifungal activity against Candida tropicalis at 10 mg/ml after 48 hrs by disc diffusion method; format: functional, organism-based
Candida albicans = test: Antifungal activity against Candida albicans at 10 mg/ml after 48 hrs by disc diffusion method; format: functional, organism-based
Photorhabdus luminescens [9] = test: Antibacterial activity against Photorhabdus luminescens at 10 mg/ml after 24 hrs by disc diffusion method; format: functional, organism-based
Klebsiella aerogenes [10] = test: Antibacterial activity against Enterobacter aerogenes at 6.25 to 200 ug/ml after 24 hrs by microwell dilution method; format: functional, organism-based
Photorhabdus luminescens [11] = test: Antibacterial activity against Photorhabdus luminescens at 6.25 to 200 ug/ml after 24 hrs by microwell dilution method; format: functional, organism-based
[12] = system: Acinetobacter radioresistens; test: Antibacterial activity against Acinetobacter radioresistens at 6.25 to 200 ug/ml after 24 hrs by microwell dilution method; format: functional, organism-based
Salmonella paratyphi [13] = test: Antibacterial activity against Salmonella paratyphi at 6.25 to 200 ug/ml after 24 hrs by microwell dilution method; format: functional, organism-based; details: Salmonella enterica subsp. enterica serovar Paratyphi A
Klebsiella aerogenes [14] = test: Antibacterial activity against Enterobacter aerogenes at 10 mg/ml after 24 hrs by disc diffusion method; format: functional, organism-based
[15] = system: Acinetobacter radioresistens; test: Antibacterial activity against Acinetobacter radioresistens at 10 mg/ml after 24 hrs by disc diffusion method; format: functional, organism-based
Salmonella paratyphi [16] = test: Antibacterial activity against Salmonella paratyphi at 10 mg/ml after 24 hrs by disc diffusion method; format: functional, organism-based; details: Salmonella enterica subsp. enterica serovar Paratyphi A
Micrococcus lylae [17] = test: Antibacterial activity against Micrococcus lylae at 10 mg/ml after 24 hrs by disc diffusion method; format: functional, organism-based
Pseudomonas aeruginosa [18] = test: Antibacterial activity against Pseudomonas aeruginosa at 10 mg/ml after 24 hrs by disc diffusion method; format: functional, organism-based
Escherichia coli [19] = test: Antibacterial activity against Escherichia coli at 10 mg/ml after 24 hrs by disc diffusion method; format: functional, organism-based
Proteus vulgaris [20] = test: Antibacterial activity against Proteus vulgaris at 10 mg/ml after 24 hrs by disc diffusion method; format: functional, organism-based
Micrococcus luteus [21] = test: Antibacterial activity against Micrococcus luteus at 10 mg/ml after 24 hrs by disc diffusion method; format: functional, organism-based
Staphylococcus aureus [22] = test: Antibacterial activity against Staphylococcus aureus at 10 mg/ml after 24 hrs by disc diffusion method; format: functional
Staphylococcus cohnii [23] = test: Antibacterial activity against Staphylococcus cohnii at 10 mg/ml after 24 hrs by disc diffusion method; format: functional
Hepacivirus hominis = test: Inhibition of HCV N-terminal His-tagged NS5B RNA dependent RNA polymerase expressed in Escherichia coli DH5alpha using poly rA/U12 as primer at 200 uM after 60 mins by liquid scintillation counting

Row | Compound | Activity (Micrococcus lylae [1]) | Activity (Pseudomonas aeruginosa [2]) | Activity (Proteus vulgaris [3]) | Activity (Escherichia coli [4]) | Activity (Staphylococcus cohnii [5]) | Activity (Staphylococcus aureus [6]) | Activity (Micrococcus luteus [7]) | Activity (Aspergillus) | Activity (Pichia membranifaciens) | Activity (Kluyveromyces marxianus) | Activity [8] | Activity (Nakaseomyces glabratus) | Activity (Candida parapsilosis) | Activity (Candida tropicalis) | Activity (Candida albicans) | Activity (Photorhabdus luminescens [9]) | Activity (Klebsiella aerogenes [10]) | Activity (Photorhabdus luminescens [11]) | Activity [12] | Activity (Salmonella paratyphi [13]) | also measured
1 | CC(C(=O)N/N=C/c1ccc([N+](=O)[O-])cc1)c1ccc(-c2ccccc2)c(F)c1 (stereo not given) | inactive | inactive | inactive | inactive | inactive | inactive | inactive | inactive | inactive | inactive | inactive | inactive | inactive | inactive | inactive | inactive | inactive | inactive | inactive | inactive | Activity (Klebsiella aerogenes [14]): inactive; Activity [15]: inactive; Activity (Salmonella paratyphi [16]): inactive; Activity (Micrococcus lylae [17]): inactive; Activity (Pseudomonas aeruginosa [18]): inactive; Activity (Escherichia coli [19]): inactive; Activity (Proteus vulgaris [20]): inactive; Activity (Micrococcus luteus [21]): inactive; Activity (Staphylococcus aureus [22]): inactive; Activity (Staphylococcus cohnii [23]): inactive; inhibition (Hepacivirus hominis): 8%
2 | CC(C(=O)N/N=C/c1ccc(F)cc1)c1ccc(-c2ccccc2)c(F)c1 (stereo not given) | inactive | inactive | inactive | inactive | inactive | inactive | inactive | inactive | inactive | inactive | inactive | inactive | inactive | inactive | inactive | inactive | inactive | inactive | inactive | inactive | Activity (Klebsiella aerogenes [14]): inactive; Activity [15]: inactive; Activity (Salmonella paratyphi [16]): inactive; Activity (Micrococcus lylae [17]): inactive; Activity (Pseudomonas aeruginosa [18]): inactive; Activity (Escherichia coli [19]): inactive; Activity (Proteus vulgaris [20]): inactive; Activity (Micrococcus luteus [21]): inactive; Activity (Staphylococcus aureus [22]): inactive; Activity (Staphylococcus cohnii [23]): inactive; inhibition (Hepacivirus hominis): 8%
3 | CCCCNC(=S)NNC(=O)C(C)c1ccc(-c2ccccc2)c(F)c1 (stereo not given) | inactive | inactive | inactive | inactive | inactive | inactive | inactive | inactive | inactive | inactive | inactive | inactive | inactive | inactive | inactive | inactive | inactive | inactive | inactive | inactive | Activity (Klebsiella aerogenes [14]): inactive; Activity [15]: inactive; Activity (Salmonella paratyphi [16]): inactive; Activity (Micrococcus lylae [17]): inactive; Activity (Pseudomonas aeruginosa [18]): inactive; Activity (Escherichia coli [19]): inactive; Activity (Proteus vulgaris [20]): inactive; Activity (Micrococcus luteus [21]): inactive; Activity (Staphylococcus aureus [22]): inactive; Activity (Staphylococcus cohnii [23]): inactive; inhibition (Hepacivirus hominis): 70%
4 | C=CCN1C(=O)CS/C1=N\NC(=O)C(C)c1ccc(-c2ccccc2)c(F)c1 (stereo not given) | inactive | inactive | inactive | inactive | inactive | inactive | inactive | inactive | inactive | inactive | inactive | inactive | inactive | inactive | inactive | inactive | inactive | inactive | inactive | inactive | Activity (Klebsiella aerogenes [14]): inactive; Activity [15]: inactive; Activity (Salmonella paratyphi [16]): inactive; Activity (Micrococcus lylae [17]): inactive; Activity (Pseudomonas aeruginosa [18]): inactive; Activity (Escherichia coli [19]): inactive; Activity (Proteus vulgaris [20]): inactive; Activity (Micrococcus luteus [21]): inactive; Activity (Staphylococcus aureus [22]): inactive; Activity (Staphylococcus cohnii [23]): inactive; inhibition (Hepacivirus hominis): 8%
5 | CC(C(=O)N/N=C/c1cccc(F)c1)c1ccc(-c2ccccc2)c(F)c1 (stereo not given) | inactive | inactive | inactive | inactive | inactive | inactive | inactive | inactive | inactive | inactive | inactive | inactive | inactive | inactive | inactive | inactive | inactive | inactive | inactive | inactive | Activity (Klebsiella aerogenes [14]): inactive; Activity [15]: inactive; Activity (Salmonella paratyphi [16]): inactive; Activity (Micrococcus lylae [17]): inactive; Activity (Pseudomonas aeruginosa [18]): inactive; Activity (Escherichia coli [19]): inactive; Activity (Proteus vulgaris [20]): inactive; Activity (Micrococcus luteus [21]): inactive; Activity (Staphylococcus aureus [22]): inactive; Activity (Staphylococcus cohnii [23]): inactive; inhibition (Hepacivirus hominis): 8%
